The target in test [1] is TDO (Homo sapiens, UniProt P48775). Description: A172 kynurenine cell-based assay. The conditions noted are these: A172 human glioblastoma cells, 48 hours, 500 μM L-tryptophan; read-out: A172 Kynurenine cell based assay pIC50 (converted). Also noted: This assay utilised cancer cells which expressed either TDO or IDO; endogenous in cells; host or cells: A172 (human glioblastoma). The procedure: (§1) Exemplary compounds of the invention were prepared, and tested to determine their effect as TDO and/or IDO inhibitors. Two different assays were employed: 1. a cell-based assay for detecting the effect of test compounds on kynurenine production in two different cancer cell types. This assay utilised cancer cells which expressed either TDO or IDO and as such was used as a means of testing compound activity at these two enzymes in a cell-based context. 2. a TDO and IDO biochemical coupled assay which utilised recombinantly produced and purified TDO and IDO enzymes in combination with the enzyme formamidase. This coupled enzyme system allowed conversion of N-formylkynurenine produced by TDO or IDO activity to kynurenine which was then quantified by fluorescence following addition of Erhlich's Reagent The protocols for these are set out below.
(§2) Cell Based Assay for Detection of Kynurenine Produced by TDO and/or IDO
(§3) A172 (human glioblastoma) and SKOV3 (human ovarian adenocarcinoma) cells were seeded in a 96 well plate at 30,000 or 40,000 cells per well respectively in phenol red-free RPMI supplemented with 10% FCS, 2 mM L-glutamine and 500 μM L-tryptophan. IDO expression was induced in the SKOV3 cells by the addition of 500 ng/ml IFN-γ. Cells were incubated at 37° C. with or without the addition of test compound. After 48 hours, the cells were removed by centrifugation and Erhlich's reagent was added to the supernatant. The Erhlich's reagent was incubated for 5 minutes before the absorbance was read at 490 nm.

Test [2] deals with IDO (Homo sapiens, UniProt P14902). In words: SKOV3 kynurenine cell-based assay (IDO induced by IFN-γ). Also noted: IDO expression was induced in the SKOV3 cells by the addition of 500 ng/ml IFN-γ; endogenous in cells; host or cells: SKOV3 (human ovarian adenocarcinoma), induced with IFN-γ. Conditions: SKOV3 human ovarian adenocarcinoma cells, 500 ng/ml IFN-γ, 48 hours, 500 μM L-tryptophan; read-out: SKOV3 Kynurenine cell based assay pIC50 (converted). The procedure: as §1, §2, §3

Each structure is given as a SMILES string.

IDO, sequence (P14902 whole entry): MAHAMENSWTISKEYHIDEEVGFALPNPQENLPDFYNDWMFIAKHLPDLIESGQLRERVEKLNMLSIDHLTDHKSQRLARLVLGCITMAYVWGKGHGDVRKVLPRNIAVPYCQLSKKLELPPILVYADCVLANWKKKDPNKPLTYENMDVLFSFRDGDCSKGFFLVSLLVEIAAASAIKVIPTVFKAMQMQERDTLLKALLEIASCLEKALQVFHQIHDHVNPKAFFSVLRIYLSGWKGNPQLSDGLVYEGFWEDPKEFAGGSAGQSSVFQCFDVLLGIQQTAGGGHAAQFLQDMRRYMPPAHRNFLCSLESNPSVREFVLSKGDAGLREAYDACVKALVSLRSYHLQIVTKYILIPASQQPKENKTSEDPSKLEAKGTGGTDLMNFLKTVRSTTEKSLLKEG
TDO, sequence (P48775 whole entry): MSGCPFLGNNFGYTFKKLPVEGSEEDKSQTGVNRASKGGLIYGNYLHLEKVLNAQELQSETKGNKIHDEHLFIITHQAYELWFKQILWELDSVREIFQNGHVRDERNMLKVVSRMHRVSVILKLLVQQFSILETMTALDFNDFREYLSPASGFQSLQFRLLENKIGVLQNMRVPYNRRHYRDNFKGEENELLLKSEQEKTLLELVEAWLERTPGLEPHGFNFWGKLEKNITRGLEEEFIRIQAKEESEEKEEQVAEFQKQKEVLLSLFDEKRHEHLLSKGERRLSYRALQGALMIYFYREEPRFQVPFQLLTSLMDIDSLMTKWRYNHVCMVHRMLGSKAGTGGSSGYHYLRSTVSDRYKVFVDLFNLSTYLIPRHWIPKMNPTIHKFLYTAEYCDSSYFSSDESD

Consider `CCC1CN(c2cc(Cl)cc3[nH]ncc23)CCN1C(C)=O` (stereo not drawn) [Compound 84], for which the IC50 is less than 3.16 µM in test [1] and 3.24 to 31.6 µM in test [2].

Regarding `O=C(CO)N1CCN(c2cc(Cl)cc3[nH]ncc23)CC1` [Compound 129], the figures for the IC50 in test [1] and in test [2] were less than 3.16 µM and 3.24 to 31.6 µM, respectively.

On to `O=S(=O)(Cc1ccccc1)N1CCN(c2cc(Cl)cc3[nH]ncc23)CC1` [Compound 56], for which the figures for the IC50 in test [1] and in test [2] were less than 3.16 µM and 3.24 to 31.6 µM, respectively.

`CC1CN(c2cccc3[nH]ncc23)CCN1S(C)(=O)=O` (stereo not drawn) [Compound 29]: the IC50 is 3.24 to 31.6 µM in test [1] and 32.4 to 100 µM in test [2].

Consider `CC(=O)N1CCN(c2cc(Br)cc3[nH]ncc23)CC1(C)C` [Compound 90], for which the IC50 in test [1] and in test [2] was less than 3.16 µM throughout.

As for `O=C(N1CCC(c2cc(Cl)cc3[nH]ncc23)CC1)C1(O)CC1` [Compound 195], the IC50 in test [1] is less than 3.16 µM; in test [2], 3.24 to 31.6 µM.

As to `COCCS(=O)(=O)N1CCN(c2cc(Cl)cc3[nH]ncc23)CC1` [Compound 64], the IC50 in test [1] is less than 3.16 µM; in test [2] it was 3.24 to 31.6 µM.

As for `CC(=O)N1CCN(c2cc(C(C)C)cc3[nH]ncc23)CC1(C)C` [Compound 147], the IC50 in test [1] and in test [2] was 3.24 to 31.6 µM throughout.

On to `O=C(CO)N1CCC(c2cc(Cl)cc3[nH]ncc23)CC1` [Compound 167], for which the IC50 was less than 3.16 µM in test [1] and 3.24 to 31.6 µM in test [2].

As for `CN(CC1CCN(c2cc(Cl)cc3[nH]ncc23)CC1)S(C)(=O)=O` [Compound 130], the results for the IC50 in test [1] and in test [2] were less than 3.16 µM and 3.24 to 31.6 µM, respectively.

Take `CC(=O)N1CC2CC1CN2c1cc(Cl)cc2[nH]ncc12` (stereo not drawn) [Compound 201]: the IC50 in test [1] is 3.24 to 31.6 µM; in test [2] it was 32.4 to 100 µM.

Consider `CC(=O)N1CCN(c2cccc3[nH]ncc23)CC1C` (stereo not drawn) [Compound 27], for which the results for the IC50 in test [1] and in test [2] were 3.24 to 31.6 µM and 32.4 to 100 µM, respectively.

For the molecule `CC(=O)N1CCN(c2cc(C3CC3)cc3[nH]ncc23)CC1` [Compound 121], the figures for the IC50 in test [1] and in test [2] were 3.24 to 31.6 µM and more than 100 µM, respectively.

For the molecule `CC(=O)N1CCC(c2cc(C3CC3)cc3[nH]ncc23)CC1` [Compound 86], the IC50 in test [1] and in test [2] was 3.24 to 31.6 µM each time.

Consider `CS(=O)(=O)N1CCN(c2cccc3c(N)noc23)CC1` [Compound 120], for which the IC50 in test [1] was more than 100 µM; in test [2] it was 3.24 to 31.6 µM.

On to `OCCc1cc(Cl)cc2[nH]ncc12` [Compound 152], for which the IC50 in test [1] was 3.24 to 31.6 µM; in test [2] it was more than 100 µM.

`CS(=O)(=O)N1CCN(c2cc(C(F)(F)F)cc3[nH]ncc23)CC1` [Compound 49]: the IC50 in test [1] was less than 3.16 µM; in test [2] it was 3.24 to 31.6 µM.

On to `CC(=O)N1CCN(c2cc(Br)cc3[nH]ncc23)CC1` [Compound 76], for which the IC50 is less than 3.16 µM in test [1] and 3.24 to 31.6 µM in test [2].

Turning to `O=S(=O)(c1ccccc1)N1CCN(c2cc(Cl)cc3[nH]ncc23)CC1` [Compound 55], the IC50 in test [1] was less than 3.16 µM; in test [2] it was 3.24 to 31.6 µM.

Regarding `CN1CCN(c2cc(Cl)cc3[nH]ncc23)CC1` [Compound 95], the IC50 in test [1] is 3.24 to 31.6 µM; in test [2], more than 100 µM.

Regarding `O=S(=O)(Cc1ccccc1)N1CCC(c2cc(Cl)cc3[nH]ncc23)CC1` [Compound 115], the IC50 in test [1] is less than 3.16 µM; in test [2] it was 3.24 to 31.6 µM.

For `O=S(=O)(Cc1ccccc1)N1CCN(c2cccc3[nH]ncc23)CC1` [Compound 13], the figures for the IC50 in test [1] and in test [2] were 3.24 to 31.6 µM and 32.4 to 100 µM, respectively.

Take `CC(=O)N1[C@H](C)CN(c2cc(Cl)cc3[nH]ncc23)C[C@H]1C` [Compound 103]: the IC50 in test [1] is less than 3.16 µM; in test [2] it was more than 100 µM.

Regarding `O=S(=O)(C1CCCC1)N1CCC(c2cc(Cl)cc3[nH]ncc23)CC1` [Compound 143], the values for the IC50 in test [1] and in test [2] were less than 3.16 µM and 3.24 to 31.6 µM, respectively.

As for `CC(C)(O)C(=O)N1CCC(c2cc(Cl)cc3[nH]ncc23)CC1` [Compound 191], the IC50 in test [1] is less than 3.16 µM; in test [2], more than 100 µM.

With `CC1(C)CN(c2cc(C3CCCC3)cc3[nH]ncc23)CCN1S(C)(=O)=O` [Compound 148], the IC50 in test [1] is 3.24 to 31.6 µM; in test [2] it was 32.4 to 100 µM.

With `CS(=O)(=O)N1CCC(c2cc(C3CC3)cc3[nH]ncc23)CC1` [Compound 87], the IC50 was less than 3.16 µM in test [1] and 3.24 to 31.6 µM in test [2].

Consider `O=C(C1COC1)N1CCN(c2cc(Cl)cc3[nH]ncc23)CC1` [Compound 204], for which the figures for the IC50 in test [1] and in test [2] were less than 3.16 µM and more than 100 µM, respectively.

On to `CC(O)C(=O)N1CCN(c2cc(Cl)cc3[nH]ncc23)CC1` (stereo not drawn) [Compound 136], for which the IC50 in test [1] was less than 3.16 µM; in test [2], 3.24 to 31.6 µM.

Turning to `CN(C1CCN(c2cc(Cl)cc3[nH]ncc23)CC1)S(C)(=O)=O` [Compound 117], the IC50 in test [1] is less than 3.16 µM; in test [2], 3.24 to 31.6 µM.

In the case of `CC(=O)N1CC=C(c2cc(Br)cc3[nH]ncc23)CC1` [Compound 128], the IC50 is less than 3.16 µM in test [1] and 3.24 to 31.6 µM in test [2].

For `CC(=O)N1CCN(c2cc(Cl)cc3c2cnn3C)CC1(C)C` [Compound 104], the IC50 in test [1] was 3.24 to 31.6 µM; in test [2], 32.4 to 100 µM.

Turning to `CS(=O)(=O)N1CCN(c2cc(C#N)cc3[nH]ncc23)CC1` [Compound 194], the IC50 in test [1] and in test [2] was 3.24 to 31.6 µM in each case.

Take `O=S1(=O)CCC2CN(c3cc(Cl)cc4[nH]ncc34)CCN21` (stereo not drawn) [Compound 89]: the IC50 was less than 3.16 µM in test [1] and 3.24 to 31.6 µM in test [2].

With `CS(=O)(=O)N1CCC(c2cc(-c3ccccc3)cc3[nH]ncc23)CC1` [Compound 32], the IC50 in test [1] was 3.24 to 31.6 µM; in test [2], 32.4 to 100 µM.

With `CS(=O)(=O)N1CCC(Oc2cccc3[nH]ncc23)CC1` [Compound 52], the figures for the IC50 in test [1] and in test [2] were 3.24 to 31.6 µM and 32.4 to 100 µM, respectively.

On to `CC(C)S(=O)(=O)N1CCN(c2cc(Cl)cc3[nH]ncc23)CC1` [Compound 61], for which the IC50 in test [1] is less than 3.16 µM; in test [2] it was 3.24 to 31.6 µM.

For the molecule `CCc1cc(N2CCN(S(C)(=O)=O)CC2)c2cn[nH]c2c1` [Compound 158], the IC50 in test [1] and in test [2] was 3.24 to 31.6 µM in each case.

Regarding `O=S(=O)(C1CC1)N1CCN(c2cc(Cl)cc3[nH]ncc23)CC1` [Compound 54], the IC50 is less than 3.16 µM in test [1] and 3.24 to 31.6 µM in test [2].

Turning to `CC(=O)N1CCN(c2cc(C(F)(F)F)cc3[nH]ncc23)CC1` [Compound 48], the values for the IC50 in test [1] and in test [2] were less than 3.16 µM and 3.24 to 31.6 µM, respectively.

For the molecule `CC(=O)N1CCN(c2cc(C3CCCC3)cc3[nH]ncc23)CC1` [Compound 139], the IC50 is 32.4 to 100 µM in test [1] and more than 100 µM in test [2].

In the case of `CC(C)(F)C(=O)N1CCN(c2cc(Cl)cc3[nH]ncc23)CC1` [Compound 118], the IC50 in test [1] is less than 3.16 µM; in test [2] it was 3.24 to 31.6 µM.

`NS(=O)(=O)N1CCC(c2cc(Cl)cc3[nH]ncc23)CC1` [Compound 174]: the IC50 was less than 3.16 µM in test [1] and 3.24 to 31.6 µM in test [2].

For the molecule `CN1C(=O)NC(=O)C12CCN(c1cc(Cl)cc3[nH]ncc13)CC2` [Compound 184], the IC50 in test [1] was less than 3.16 µM; in test [2] it was 3.24 to 31.6 µM.

Consider `CS(=O)(=O)N1CCN(c2cc(C3CCOCC3)cc3[nH]ncc23)CC1` [Compound 169], for which the IC50 was 3.24 to 31.6 µM in test [1] and more than 100 µM in test [2].

As to `CS(=O)(=O)N1CCN(c2cc(-c3ncco3)cc3[nH]ncc23)CC1` [Compound 157], the IC50 is more than 100 µM in test [1] and 32.4 to 100 µM in test [2].

In the case of `COCCS(=O)(=O)N1CCN(c2cccc3[nH]ncc23)CC1` [Compound 23], the IC50 in test [1] is more than 100 µM; in test [2], 32.4 to 100 µM.

On to `O=C(C1CC1)N1CCC(c2cc(Cl)cc3[nH]ncc23)CC1` [Compound 165], for which the IC50 was less than 3.16 µM in test [1] and 32.4 to 100 µM in test [2].

In the case of `CS(=O)(=O)N1CCN(c2cc(-c3ccccc3)cc3[nH]ncc23)CC1` [Compound 33], the IC50 in test [1] was 3.24 to 31.6 µM; in test [2] it was 32.4 to 100 µM.

In the case of `CC(C)S(=O)(=O)N1CCC(c2cc(Cl)cc3[nH]ncc23)CC1` [Compound 141], the IC50 was less than 3.16 µM in test [1] and 3.24 to 31.6 µM in test [2].

As for `CC(O)c1cc(Cl)cc2[nH]ncc12` (stereo not drawn) [Compound 153], the IC50 in test [1] is less than 3.16 µM; in test [2] it was 32.4 to 100 µM.

On to `CC(=O)N1[C@H](C)CN(c2cc(Cl)cc3[nH]ncc23)C[C@@H]1C` [Compound 113], for which the figures for the IC50 in test [1] and in test [2] were less than 3.16 µM and 3.24 to 31.6 µM, respectively.

Regarding `CS(=O)(=O)N1CCN(c2cc(C3CCCC3)cc3[nH]ncc23)CC1` [Compound 131], the IC50 is more than 100 µM in test [1] and 32.4 to 100 µM in test [2].

On to `OCCNc1cc(Cl)cc2[nH]ncc12` [Compound 142], for which the figures for the IC50 in test [1] and in test [2] were 3.24 to 31.6 µM and more than 100 µM, respectively.
